From US6727232B2, “Nucleoside peptide antibiotics of AA-896” (Wyeth Holdings Corporation, priority 2001, dated 2004)
Values after ≈ are worked out from the molar mass of the structure shown. Where two headings read alike, the source gives them in different places.

Assays:
Experiment in all cases: Broth dilution MIC
Assay type in all cases: cell-based
E. cloacae GC 3783 = details: Enterobacter cloacae, GC3783; E. cloacae GC 3783; Mueller-Hinton broth, 18 hours at 35° C.; read-out: Antimicrobial Activity (MIC)
Method: (§1) The in vitro antibacterial activity of Example 1 through Example 20 is determined against a spectrum of Gram-positive and Gram-negative bacteria by a standard broth dilution method. Serial dilution of the compounds are made in Mueller-Hinton broth and inoculated with a bacterial suspension. The lowest concentration of compound that inhibited the growth of a bacterial strain after 18 hours of incubation at 35° C. is reported as the minimal inhibitory concentration (MIC) for that strain.

CNS GC 4537 = details: CNS GC 4537; Mueller-Hinton broth, 18 hours at 35° C.; read-out: Antimicrobial Activity (MIC)
Method: as §1

CNS GC 4547 = details: CNS GC 4547; Mueller-Hinton broth, 18 hours at 35° C.; read-out: Antimicrobial Activity (MIC)
Method: as §1

P. rettgeri GC 4530 = details: Providencia rettgeri, GC4530; P. rettgeri GC 4530; Mueller-Hinton broth, 18 hours at 35° C.; read-out: Antimicrobial Activity (MIC)
Method: as §1

E. faecalis GC 4555 = details: Enterococcus faecalis, GC4555; E. faecalis GC 4555; Mueller-Hinton broth, 18 hours at 35° C.; read-out: Antimicrobial Activity (MIC)
Method: as §1

E. coli GC 2203 = details: Escherichia coli, GC2203; E. coli GC 2203; Mueller-Hinton broth, 18 hours at 35° C.; read-out: Antimicrobial Activity (MIC)
Method: as §1

E. coli GC 4559 = details: Escherichia coli, GC4559; E. coli GC 4559; Mueller-Hinton broth, 18 hours at 35° C.; read-out: Antimicrobial Activity (MIC)
Method: as §1

M. morganii GC 4531 = details: Morganella morganii, GC4531; M. morganii GC 4531; Mueller-Hinton broth, 18 hours at 35° C.; read-out: Antimicrobial Activity (MIC)
Method: as §1

E. faecalis GC 2242 = details: Enterococcus faecalis, GC2242; E. faecalis GC 2242; Mueller-Hinton broth, 18 hours at 35° C.; read-out: Antimicrobial Activity (MIC)
Method: as §1

S. aureus GC 4536 = details: Staphylococcus aureus, GC4536; S. aureus GC 4536; Mueller-Hinton broth, 18 hours at 35° C.; read-out: Antimicrobial Activity (MIC)
Method: as §1

E. coli GC 3226 = details: Escherichia coli, GC3226; E. coli GC 3226; Mueller-Hinton broth, 18 hours at 35° C.; read-out: Antimicrobial Activity (MIC)
Method: as §1

S. aureus GC 1131 = details: Staphylococcus aureus, GC1131; S. aureus GC 1131; Mueller-Hinton broth, 18 hours at 35° C.; read-out: Antimicrobial Activity (MIC)
Method: as §1

P. aeruginosa GC 2214 = details: Pseudomonas aeruginosa, GC2214; P. aeruginosa GC 2214; Mueller-Hinton broth, 18 hours at 35° C.; read-out: Antimicrobial Activity (MIC)
Method: as §1

E. coli GC 4560 = details: Escherichia coli, read-out: Antimicrobial Activity (MIC)
Method: as §1

S. marcescens GC 4077 = details: Serratia marcescens, GC4077; S. marcescens GC 4077; Mueller-Hinton broth, 18 hours at 35° C.; read-out: Antimicrobial Activity (MIC)
Method: as §1

E. faecalis GC 842 = details: Enterococcus faecalis, GC842; E. faecalis GC 842; Mueller-Hinton broth, 18 hours at 35° C.; read-out: Antimicrobial Activity (MIC)
Method: as §1

S. aureus GC 2216 = details: Staphylococcus aureus, GC2216; S. aureus GC 2216; Mueller-Hinton broth, 18 hours at 35° C.; read-out: Antimicrobial Activity (MIC)
Method: as §1

P. aeruginosa GC 4532 = details: Pseudomonas aeruginosa, GC4532; P. aeruginosa GC 4532; Mueller-Hinton broth, 18 hours at 35° C.; read-out: Antimicrobial Activity (MIC)
Method: as §1

CNS GC 4538 = details: CNS GC 4538; Mueller-Hinton broth, 18 hours at 35° C.; read-out: Antimicrobial Activity (MIC)
Method: as §1

K. pneumoniae GC 4534 = details: Klebsiella pneumoniae, GC4534; K. pneumoniae GC 4534; Mueller-Hinton broth, 18 hours at 35° C.; read-out: Antimicrobial Activity (MIC)
Method: as §1

[1] = GC4560, E. coli GC 4560, Mueller-Hinton broth, 18 hours at 35° C.

| Compound | MIC (E. cloacae GC 3783) [µg/mL] | MIC (CNS GC 4537) [µg/mL] | MIC (CNS GC 4547) [µg/mL] | MIC (P. rettgeri GC 4530) [µg/mL] | MIC (E. faecalis GC 4555) [µg/mL] | MIC (E. coli GC 2203) [µg/mL] | MIC (E. coli GC 4559) [µg/mL] | MIC (M. morganii GC 4531) [µg/mL] | MIC (E. faecalis GC 2242) [µg/mL] | MIC (S. aureus GC 4536) [µg/mL] | MIC (E. coli GC 3226) [µg/mL] | MIC (S. aureus GC 1131) [µg/mL] | MIC (P. aeruginosa GC 2214) [µg/mL] | MIC (E. coli GC 4560; GC4560, 18 h) [µg/mL] | MIC (S. marcescens GC 4077) [µg/mL] | MIC (E. faecalis GC 842) [µg/mL] | MIC (S. aureus GC 2216) [µg/mL] | MIC (P. aeruginosa GC 4532) [µg/mL] | MIC (CNS GC 4538) [µg/mL] | MIC (K. pneumoniae GC 4534) [µg/mL] | further results |
| --- | --- | --- | --- | --- | --- | --- | --- | --- | --- | --- | --- | --- | --- | --- | --- | --- | --- | --- | --- | --- | --- |
| CCCCCN(CCCNC(=O)C(NC(=O)C(NC(=O)NC(C(=O)O)C(C)C)C1CCNC(=N)N1)C(O)C(C)C)C(C(=O)O)[C@@H](OC1O[C@H](CN)[C@H](O)[C@H]1OC)[C@H]1O[C@@H](n2ccc(=O)[nH]c2=O)[C@H](O)[C@@H]1O (stereo partly drawn) [Example 9, 16-((R)-{[(3R,4S,5R)-5-(Aminomethyl)-4-hydroxy-3-methoxytetrahydro-2-furanyl]oxy}{(2S,3S,4R,5R)-5-[2,4-dioxo-3,4-di hydro-1 (2H)-pyrimidinyl]-3,4-dihydroxytetrahydro-2-furanyl}methyl)-9-(1-hydroxy-2-methylpropyl)-6-(2-iminohexahydro-4-pyrimidinyl)-2-isopropyl-4,7,10-trioxo-15-pentyl-3,5,8,11,15-pentaazaheptadecane-1,17-dioic Acid] | > 32 | > 32 | > 32 | > 32 | > 32 | > 32 | > 32 | > 32 | > 32 | > 32 | > 32 | > 32 | > 32 | 32 (≈ 31.5 µM) | > 32 | > 32 | > 32 | > 32 | > 32 | > 32 | – |
| CO[C@H]1C(O[C@H](C(C(=O)O)N(CCCCCCCCCCCC[N+]2(C)CCOCC2)CCCNC(=O)C(NC(=O)C(NC(=O)NC(C(=O)O)C(C)C)C2CCNC(=N)N2)C(O)C(C)C)[C@H]2O[C@@H](n3ccc(=O)[nH]c3=O)[C@H](O)[C@@H]2O)O[C@H](CN)[C@@H]1O (stereo partly drawn) [Example 10, 4-[13-((2R)-2-{[(3R,4S,5R)-5-(Aminomethyl)-4-hydroxy-3-methoxytetrahydro-2-furanyl]oxy}-1-carboxy-2-{(2S,3S,4R,5R)-5-[2,4-dioxo-3,4-dihydro-1 (2H)-pyrimidinyl]-3,4-dihydroxytetrahydro-2-furanyl}ethyl)-26-carboxy-19-(1-hydroxy-2-methylpropyl)-22-(2-iminohexahydro-4-pyrimidinyl) -27-methyl-18,21,24-trioxo-13,17,20,23,25-pentaazaoctacos-1-yl]-4-methylmorpholin-4-ium] | > 32 | > 32 | > 32 | > 32 | > 32 | > 32 | > 32 | > 32 | > 32 | > 32 | > 32 | > 32 | > 32 | 16 | > 32 | > 32 | > 32 | > 32 | > 32 | > 32 | – |
| CCCCCCCCNC(=O)NC[C@H]1OC(O[C@H](C2C(=O)N(CCCCCCCC)C(=O)N2CCCNC(=O)C(NC(=O)C(NC(=O)NC(C(=O)O)C(C)C)C2CCNC(=N)N2)C(O)C(C)C)[C@H]2O[C@@H](n3ccc(=O)[nH]c3=O)[C@H](O)[C@@H]2O)[C@H](OC)[C@H]1O (stereo partly drawn) [Example 11, 14-[5-((R)-{(2S,3S,4R,5R)-5-[2,4-Dioxo-3,4-dihydro-1 (2H)-pyrimidinyl]-3,4-dihydroxytetrahydro-2-furanyl}{[(3R,4S,5R)-4-hydroxy-3-methoxy-5-({[(octylamino)carbonyl]amino}methyl)tetrahydro-2-furanyl]oxy}methyl)-3-octyl-2,4-dioxo-1-imidazolidinyl]-9-(1-hydroxy-2-methylpropyl)-6-(2-iminohexahydro-4-pyrimidinyl)-2-isopropyl-4,7,10-trioxo-3,5,8,11-tetraazatetradecan-1-oic Acid] | > 32 | > 32 | > 32 | > 32 | > 32 | > 32 | > 32 | > 32 | > 32 | > 32 | > 32 | > 32 | > 32 | – | > 32 | > 32 | > 32 | > 32 | > 32 | > 32 | MIC (E. coli GC 4560; [1]): > 32 µg/mL |
| COC1C(O[C@H](C2C(=O)N(c3ccc(F)cc3)C(=O)N2CCCNC(=O)C(NC(=O)C(NC(=O)NC(C(=O)O)C(C)C)C2CCNC(=N)N2)C(O)C(C)C)[C@H]2O[C@@H](n3ccc(=O)[nH]c3=O)C(O)C2O)O[C@H](CNC(=O)Nc2ccc(F)cc2)C1O (stereo partly drawn) [Example 12, 14-[5-((R)-{(2S,5R)-5-[2,4-Dioxo-3,4-dihydro-1 (2H)-pyrimidinyl]-3,4-dihydroxytetrahydro-2-furanyl}{[(5R)-4-hydroxy-3-methoxy-5-({[(4-fluoroanilino)carbonyl]amino}methyl)tetrahydro-2-furanyl]oxy}methyl)-3-(4-fluorophenyl)-2,4-dioxo-1-imidazolidinyl]-9-(1-hydroxy-2-methylpropyl)-6-(2-iminohexahydro-4-pyrimidinyl)-2-isopropyl-4,7,10-trioxo-3,5,8,11-tetraazatetradecan-1-oic Acid] | > 32 | > 32 | > 32 | > 32 | > 32 | > 32 | > 32 | > 32 | > 32 | > 32 | > 32 | > 32 | > 32 | – | > 32 | > 32 | > 32 | > 32 | > 32 | > 32 | MIC (E. coli GC 4560; [1]): > 32 µg/mL |
